Results on one compound are retold here after patent publication US12655132B2, “Crystal forms of a pyridazinone TRPC inhibitor” (GFB (ABC), LLC, priority 2019, dated 2026).

A short description of this series: Stability of crystalline form E at different relative humidities over 3-14 days. The class given is physicochemical. How it is done:
Crystalline form E was also tested for stability at different relative humidities over 3-14 days. The results are shown below in Table 3.1

Regarding `O=c1[nH]ncc(N2CCc3c(ncnc3Oc3ccc(F)cc3C(F)(F)F)C2)c1Cl` [Crystalline Form E, 4-chloro-5-(4-(4-fluoro-2-(trifluoromethyl)phenoxy)-5,8-dihydropyrido[3,4-d]pyrimidin-7(6H)-yl)pyridazin-3(2H)-one], the “Stability of Crystalline Form E at Different Relative Humidities (RH): crystal type found” value is, setting by setting: (30% RH, 3 days) “Type E”; (30% RH, 7 days) “Type E”; (30% RH, 14 days) “Type E + Type F”; (50% RH, 3 days) “Type E”; (50% RH, 7 days) “Type E”; (50% RH, 14 days) “Type E”. Also, the “Stability of Crystalline Form E at Different Relative Humidities (RH): crystal type found” value by setting is: (60% RH, 3 days) “Type E”; (60% RH, 7 days) “Type E”; (60% RH, 14 days) “Type E”; (92.5% RH, 3 days) “Type E”; (92.5% RH, 7 days) “Type E”; (92.5% RH, 14 days) “Type E”. Further, the “Stability at low relative humidity (conclusion in words)” value (storage for 14 days at 30% relative humidity, appearance of Type F) was “unstable”.
